Patent US7034051B2, “Fused bicyclic carboxamide derivatives and methods of their use” (Adolor Corporation, priority 2003, dated 2006)

Key:
[1] = molecular target: T1, cloned human δ opioid receptor (Homo sapiens, UniProt P41143); test: In vitro binding assay, inhibition of [3H]diprenorphine binding to cloned human δ opioid receptor
T1 construct: expressed in transfected cells
Method: IC50 values were obtained by nonlinear analysis of the data using GraphPad Prism version 3.00 for Windows (GraphPad Software, San Diego). Ki values were obtained by Cheng-Prusoff corrections of IC50 values.
After incubation at room temperature for one hour, the samples were filtered through GF/B filters that had been presoaked in a solution of 0.5% (w/v) polyethylenimine and 0.1% (w/v) bovine serum albumin in water. The filters were rinsed 4 times with 1 mL of cold 50 mM Tris HCl, pH 7.8 and radioactivity remaining on the filters determined by scintillation spectroscopy. Nonspecific binding was determined by the minimum values of the titration curves and was confirmed by separate assay wells containing 10 μM naloxone.
To determine the equilibrium dissociation constant for the inhibitors (Ki), radioligand bound (cpm) in the presence of various concentrations of test compounds was measured. The concentration to give half-maximal inhibition (EC50) of radioligand binding was determined from a best nonlinear regression fit to the following equation,
The nonlinear regression fit was performed using the program Prism® (GraphPad Software, San Diego, Calif.). The Ki values were then determined from the EC50 values by the following equation, […]

[2] = tested on: formalin-induced flinching in rats; test: In vivo formalin-induced nociception assay; design: species or system rat; conditions: dose of 300 μg, i.paw
Source text: Administration of formalin into the paw results in a localized inflammation and a pain response that is moderate in intensity and continuous in duration. Unlike many other assays of nociception, the formalin assay measures tonic pain that is a result of tissue injury, and therefore is a model which is more relevant to clinical pain states in humans (see Tjolsen et al., Pain 51: 5–17, 1992). In the rat the response to formalin-induced pain consists of spontaneous flinching behavior, characterized by paw lifting and paw shaking, and a rapid vibration of the paw after drawing it under the body. […] The early or acute phase lasts from 0–5 minutes post-formalin and is followed by a quiescent period lasting approximately 15 minutes. The tonic phase occurs from 20–35 minutes following formalin injection and is the interval where the number of flinching responses is maximal. […]
Inflammation is induced by subcutaneous injection of […] of a 5% formalin solution into the dorsal surface of the right hind paw of male Sprague-Dawley rats weighing 70–90 g. Injections of drug are given into the dorsal surface of the paw prior to formalin injection, and flinching behavior is quantitated by counting the number of responses that occur during the tonic phase of pain, lasting from 20–35 min after formalin injection. […]

T1 sequence (P41143 whole entry): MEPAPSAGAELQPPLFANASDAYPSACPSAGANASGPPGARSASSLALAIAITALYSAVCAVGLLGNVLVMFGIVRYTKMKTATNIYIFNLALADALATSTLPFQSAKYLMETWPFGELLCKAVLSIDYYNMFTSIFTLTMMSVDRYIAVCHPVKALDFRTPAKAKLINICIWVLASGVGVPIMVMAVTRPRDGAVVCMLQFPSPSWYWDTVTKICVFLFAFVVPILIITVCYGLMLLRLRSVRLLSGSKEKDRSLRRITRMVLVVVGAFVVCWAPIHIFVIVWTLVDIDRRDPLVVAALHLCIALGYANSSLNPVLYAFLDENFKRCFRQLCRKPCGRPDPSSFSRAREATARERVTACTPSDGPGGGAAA

## COC(=O)NCc1ccc2c(c1)CC[C@H](C(=O)N(C)[C@H](CN1CC[C@H](O)C1)c1ccccc1)O2 [Example 52, (2-{[2-({S}-3-Hydroxy-pyrrolidin-1-yl)-{S}-1-phenyl-ethyl]-(R)-methyl-carbamoyl}-chroman-6-ylmethyl)-carbamic acidmethyl ester]
[1]
  Ki: 1600 nM
[2]
  % A (percent antagonism of formalin-induced flinching): 95%
